Test results reported in ChEMBL document CHEMBL5465560, “Selectivity Literature for EUbOPEN Chemogenomic Library” (2024).

How the values were obtained:
[1] = molecular target: T1, Serine/threonine-protein kinase Nek1 (Homo sapiens) (UniProt Q96PY6); assay: Selectivity interaction (KinomeScan (DiscoverX)) EUB0000695a NEK1; settings: at 100 nM
T1 sequence (whole entry): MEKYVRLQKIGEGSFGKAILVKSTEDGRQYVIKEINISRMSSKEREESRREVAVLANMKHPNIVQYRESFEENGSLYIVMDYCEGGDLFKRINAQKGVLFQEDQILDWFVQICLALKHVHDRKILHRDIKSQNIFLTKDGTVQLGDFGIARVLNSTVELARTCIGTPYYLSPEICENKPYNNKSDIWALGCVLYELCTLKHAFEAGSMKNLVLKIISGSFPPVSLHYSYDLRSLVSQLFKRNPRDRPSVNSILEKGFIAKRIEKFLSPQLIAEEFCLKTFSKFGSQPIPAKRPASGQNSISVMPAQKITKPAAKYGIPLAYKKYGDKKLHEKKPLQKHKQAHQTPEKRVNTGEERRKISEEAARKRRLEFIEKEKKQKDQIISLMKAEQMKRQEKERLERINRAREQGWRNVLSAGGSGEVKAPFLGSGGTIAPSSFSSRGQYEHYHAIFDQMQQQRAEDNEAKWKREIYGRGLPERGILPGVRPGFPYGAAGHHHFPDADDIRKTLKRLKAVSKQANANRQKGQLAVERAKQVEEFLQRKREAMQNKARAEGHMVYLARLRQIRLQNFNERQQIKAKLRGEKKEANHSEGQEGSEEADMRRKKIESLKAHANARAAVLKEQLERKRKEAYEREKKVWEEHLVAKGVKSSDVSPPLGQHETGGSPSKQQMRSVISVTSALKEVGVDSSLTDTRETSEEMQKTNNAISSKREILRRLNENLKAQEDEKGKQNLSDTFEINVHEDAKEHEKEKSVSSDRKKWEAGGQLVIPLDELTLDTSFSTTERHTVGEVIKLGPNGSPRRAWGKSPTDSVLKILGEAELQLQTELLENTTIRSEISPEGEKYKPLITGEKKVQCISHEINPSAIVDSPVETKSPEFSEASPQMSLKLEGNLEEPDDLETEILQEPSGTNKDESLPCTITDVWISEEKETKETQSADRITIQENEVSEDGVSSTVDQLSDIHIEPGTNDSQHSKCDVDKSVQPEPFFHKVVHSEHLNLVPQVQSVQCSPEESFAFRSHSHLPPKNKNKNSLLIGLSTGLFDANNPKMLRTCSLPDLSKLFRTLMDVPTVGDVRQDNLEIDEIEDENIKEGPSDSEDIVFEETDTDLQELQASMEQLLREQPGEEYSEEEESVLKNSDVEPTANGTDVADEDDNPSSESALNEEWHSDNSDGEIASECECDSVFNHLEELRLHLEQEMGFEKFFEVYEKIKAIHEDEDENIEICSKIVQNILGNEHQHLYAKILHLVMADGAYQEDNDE

Activated CDC42 kinase 1 = Activated CDC42 kinase 1 (Homo sapiens, UniProt Q07912); settings: at 10 µM
Chain of Activated CDC42 kinase 1 (Q07912 whole entry, looked up): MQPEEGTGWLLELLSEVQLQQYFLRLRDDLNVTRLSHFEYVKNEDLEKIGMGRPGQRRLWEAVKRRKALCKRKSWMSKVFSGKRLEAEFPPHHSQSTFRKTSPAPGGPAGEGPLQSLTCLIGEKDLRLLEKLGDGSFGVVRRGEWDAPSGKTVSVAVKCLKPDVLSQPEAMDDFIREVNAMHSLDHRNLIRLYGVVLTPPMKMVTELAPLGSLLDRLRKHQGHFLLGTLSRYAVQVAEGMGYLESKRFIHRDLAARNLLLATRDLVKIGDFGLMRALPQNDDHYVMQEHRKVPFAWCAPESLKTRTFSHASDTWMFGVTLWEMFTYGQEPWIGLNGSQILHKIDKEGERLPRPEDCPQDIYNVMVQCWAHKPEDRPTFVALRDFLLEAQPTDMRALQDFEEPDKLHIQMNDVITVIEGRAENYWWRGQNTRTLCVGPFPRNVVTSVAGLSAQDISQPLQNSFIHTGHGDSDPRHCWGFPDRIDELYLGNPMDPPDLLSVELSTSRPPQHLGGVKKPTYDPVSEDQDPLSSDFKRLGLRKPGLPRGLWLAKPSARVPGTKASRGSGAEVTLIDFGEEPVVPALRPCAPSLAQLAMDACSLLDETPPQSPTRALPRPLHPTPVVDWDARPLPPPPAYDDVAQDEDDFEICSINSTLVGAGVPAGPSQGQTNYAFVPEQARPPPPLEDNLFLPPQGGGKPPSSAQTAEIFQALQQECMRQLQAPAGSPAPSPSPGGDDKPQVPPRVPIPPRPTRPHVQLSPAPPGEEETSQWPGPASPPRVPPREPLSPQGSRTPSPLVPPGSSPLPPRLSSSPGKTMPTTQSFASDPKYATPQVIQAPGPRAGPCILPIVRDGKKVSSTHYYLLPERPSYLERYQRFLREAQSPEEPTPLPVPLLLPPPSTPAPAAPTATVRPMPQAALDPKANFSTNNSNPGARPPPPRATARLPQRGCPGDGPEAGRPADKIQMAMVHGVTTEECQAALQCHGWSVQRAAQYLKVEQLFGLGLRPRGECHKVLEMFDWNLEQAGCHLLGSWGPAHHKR

[2] = molecular target: T2, Cytoplasmic tyrosine-protein kinase BMX (Homo sapiens) (UniProt P51813); assay: Selectivity interaction (KinomeScan (DiscoverX)) EUB0000229b BMX; settings: at 10 µM
T2 sequence (whole entry): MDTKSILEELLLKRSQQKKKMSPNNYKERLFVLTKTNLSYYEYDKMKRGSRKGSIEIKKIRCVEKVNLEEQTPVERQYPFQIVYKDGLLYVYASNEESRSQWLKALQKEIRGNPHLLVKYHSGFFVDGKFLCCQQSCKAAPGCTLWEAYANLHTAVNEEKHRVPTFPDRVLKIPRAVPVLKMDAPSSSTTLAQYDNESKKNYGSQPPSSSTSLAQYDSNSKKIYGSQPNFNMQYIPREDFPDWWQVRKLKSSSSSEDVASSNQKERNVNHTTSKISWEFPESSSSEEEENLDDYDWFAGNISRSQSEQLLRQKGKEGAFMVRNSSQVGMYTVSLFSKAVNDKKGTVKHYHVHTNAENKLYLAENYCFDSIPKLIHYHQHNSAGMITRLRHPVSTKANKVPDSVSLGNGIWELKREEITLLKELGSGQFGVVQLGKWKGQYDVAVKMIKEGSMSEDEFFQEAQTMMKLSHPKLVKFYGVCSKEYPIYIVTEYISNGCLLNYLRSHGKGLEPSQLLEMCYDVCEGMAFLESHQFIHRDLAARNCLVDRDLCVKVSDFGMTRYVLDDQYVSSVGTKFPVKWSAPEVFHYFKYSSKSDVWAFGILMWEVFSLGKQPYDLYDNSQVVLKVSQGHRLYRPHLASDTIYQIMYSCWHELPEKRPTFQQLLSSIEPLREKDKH

[3] = molecular target: Calcium/calmodulin-dependent protein kinase type II subunit gamma (Homo sapiens) (UniProt Q13555); assay: Selectivity interaction (KinomeScan (DiscoverX)) EUB0001079a CAMK2G; settings: at 1 µM
Chain of Calcium/calmodulin-dependent protein kinase type II subunit gamma (Homo sapiens) (Q13555 whole entry): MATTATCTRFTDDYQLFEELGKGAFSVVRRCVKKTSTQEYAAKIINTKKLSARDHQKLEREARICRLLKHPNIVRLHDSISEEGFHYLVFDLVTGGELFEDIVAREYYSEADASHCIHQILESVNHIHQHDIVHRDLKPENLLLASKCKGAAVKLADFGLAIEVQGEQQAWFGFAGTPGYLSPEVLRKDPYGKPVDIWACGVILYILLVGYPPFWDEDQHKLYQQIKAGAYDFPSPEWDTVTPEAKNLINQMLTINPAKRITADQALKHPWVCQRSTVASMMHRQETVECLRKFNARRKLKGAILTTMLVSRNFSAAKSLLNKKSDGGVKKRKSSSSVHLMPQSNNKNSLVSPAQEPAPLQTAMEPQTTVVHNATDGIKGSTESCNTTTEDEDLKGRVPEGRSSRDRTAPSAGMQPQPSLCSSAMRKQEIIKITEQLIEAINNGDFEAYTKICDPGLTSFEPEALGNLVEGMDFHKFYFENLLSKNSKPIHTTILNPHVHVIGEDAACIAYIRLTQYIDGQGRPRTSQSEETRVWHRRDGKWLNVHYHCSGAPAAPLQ

[4] = molecular target: Serine/threonine-protein kinase mTOR (Homo sapiens, UniProt P42345); settings: at 10 µM
[5] = molecular target: Serine/threonine-protein kinase 24 (Homo sapiens) (UniProt Q9Y6E0); assay: Selectivity interaction (KinomeScan (DiscoverX)) EUB0000618a STK24; settings: at 10 µM
Chain of Serine/threonine-protein kinase 24 (Homo sapiens) (Q9Y6E0 whole entry, looked up): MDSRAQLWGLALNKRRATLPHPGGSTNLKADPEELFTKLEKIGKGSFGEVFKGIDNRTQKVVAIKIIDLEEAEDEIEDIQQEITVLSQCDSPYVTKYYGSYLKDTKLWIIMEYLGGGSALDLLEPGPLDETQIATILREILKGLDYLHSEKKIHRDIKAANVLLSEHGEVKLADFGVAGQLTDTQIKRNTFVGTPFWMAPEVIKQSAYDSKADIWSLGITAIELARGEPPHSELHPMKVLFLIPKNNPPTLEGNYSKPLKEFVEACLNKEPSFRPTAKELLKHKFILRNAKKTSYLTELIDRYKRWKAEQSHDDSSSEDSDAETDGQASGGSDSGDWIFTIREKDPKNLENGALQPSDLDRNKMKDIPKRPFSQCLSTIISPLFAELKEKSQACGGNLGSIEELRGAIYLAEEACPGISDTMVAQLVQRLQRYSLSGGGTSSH

[6] = molecular target: T3, Serine/threonine-protein kinase 3 (Homo sapiens) (UniProt Q13188); assay: Selectivity interaction (KinomeScan (DiscoverX)) EUB0000607a STK3; settings: at 10 µM
T3 sequence (whole entry): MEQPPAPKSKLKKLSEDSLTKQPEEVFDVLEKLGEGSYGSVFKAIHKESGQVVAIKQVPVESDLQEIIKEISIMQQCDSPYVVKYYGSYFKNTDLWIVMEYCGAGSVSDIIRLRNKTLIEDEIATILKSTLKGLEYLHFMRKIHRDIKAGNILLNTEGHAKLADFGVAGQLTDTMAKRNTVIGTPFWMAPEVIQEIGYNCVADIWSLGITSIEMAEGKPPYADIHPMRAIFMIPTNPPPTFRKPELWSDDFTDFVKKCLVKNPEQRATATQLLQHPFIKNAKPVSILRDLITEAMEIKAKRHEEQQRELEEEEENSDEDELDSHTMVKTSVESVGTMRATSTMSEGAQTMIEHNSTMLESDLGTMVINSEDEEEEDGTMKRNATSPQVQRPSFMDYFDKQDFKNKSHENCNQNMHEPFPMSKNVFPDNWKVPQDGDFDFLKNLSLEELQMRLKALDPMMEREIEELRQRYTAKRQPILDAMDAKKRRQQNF

Cc1cc(F)c(C(=O)Nc2cccc(-c3nncn3C(C)C)n2)cc1-n1cnc(C2CC2)c1
% of control [1]: 100%

CCN(CC)CCCCNc1ncc2cc(-c3cc(OC)cc(OC)c3)c(NC(=O)NC(C)(C)C)nc2n1
% of control (Activated CDC42 kinase 1): 100%

COc1cc(N(C)c2ccnc3ccc(C(F)(F)F)cc23)cc(OC)c1OC
% binding [2]: 88%

Nc1cnc(N2CCc3cc(S(=O)(=O)Nc4c(F)cc(Cl)cc4F)cc(N4CCCC4=O)c32)nc1 [TP-020n]
% of control [3]: 100%

CCC(=O)N1CCN(c2ccc(-n3c(=O)ccc4cnc5ccc(-c6cnc7ccccc7c6)cc5c43)cc2C(F)(F)F)CC1
% of control [4]: 0%

O[C@H]1CC[C@H](Nc2ncc3nc(Nc4c(F)cc(F)cc4F)n([C@H]4CCOC4)c3n2)CC1
% of control [5]: 88%

CNC(=O)Nc1ccc(-c2nc(N3CC4CCC(C3)O4)c3cnn(C4CCC5(CC4)OCCO5)c3n2)cc1
% of control [6]: 97%
